Reference: US20250313559A1 (Bayer Aktiengesellschaft, priority 2024, published 2025)

Columns and labels:
[1] = test system: patients across cardio-kidney-metabolic disease states
[2] = test system: patients with HF and LVEF ≥40%; assay: […]-HF (Example 2) safety: adverse events, hyperkalemia, serum potassium, eGFR, creatinine, vital signs; assay type: in vivo, human; conditions: number of patients (%); for Any Serious Adverse Events: treatment-emergent; for Elevated Serum Creatinine >[…] / Elevated Serum Creatinine ≥3.0 mg/dl / Elevated Serum Potassium >6.0 mmol/liter / Elevated Serum Potassium >[…] / Reduced Serum Potassium < […] / Systolic Blood Pressure <100 mm Hg: patients with at least one assessment
Text: Safety assessments includes adverse events (AEs), serious adverse events (SAEs), vital signs including heart rate and blood pressure assessment. Safety laboratory tests includes blood chemistry, hematology and urinalysis.
The following safety procedures and variables have been assessed during the study: • SAEs and AEs leading to discontinuation of treatment with study intervention; • Change in body weight from baseline; • Change in serum potassium from baseline; • Number of participants with hyperkalemia (serum potassium >5.5 mmol/L); • Number of participants with severe hyperkalemia (serum potassium >6.0 mmol/L); • Number of participants with hospitalization for hyperkalemia; • Number of participants permanently discontinuing study intervention due to Hyperkalemia; • Change in vital signs (heart rate, SBP and DBP) from baseline; • Change in renal function measured by eGFR (CKD-EPI formula) change from baseline; • Number of participants with hospitalization for worsening of renal function; • Number of participants permanently discontinuing study intervention due to worsening of renal function; and • Changes in laboratory values from baseline.
AEs that occurred or worsened after the first dose of study drug and up to 3 days after the last dose of study drug have been considered as treatment-emergent AEs (TEAEs).
An overall summary of all AEs and treatment emergent AEs (TEAEs) has been generated by treatment group. The number and percentage of patients with TEAEs, post-treatment AEs occurring more than 3 days after last intake of study intervention, treatment-emergent SAEs, treatment-emergent study intervention-related AEs, treatment-emergent study intervention-related SAEs, TEAEs causing premature and permanent discontinuation of study intervention, treatment-emergent non-serious AEs, TEAEs by maximum intensity, drug-related TEAEs by maximum intensity has been summarized by treatment group using Medical Dictionary for Regulatory Activity (MedDRA) terms grouped by Primary System Organ Class and Preferred Term.
The number of patients with treatment-emergent (until 3 days after last study intervention administration) abnormal laboratory values above or below the normal range has been tabulated by the laboratory parameter and treatment group.
Summary statistics including changes from baseline have been calculated by treatment group and visit for all quantitative laboratory parameters, i.e. for hematology, clinical chemistry and urinalysis. Geometric statistics and ratios to baseline has been presented for urinary albumin-to-creatinine ratio (UACR), creatinine, and NT-proBNP, instead of arithmetic statistics with changes from baseline.
The following special safety parameters have been further assessed by displaying the number and percentage of patients with safety events as described below by treatment group, visit, and for any time on treatment (including unscheduled assessments) and until 3 days after last study intervention administration. This has also been performed by stratification factors.

[3] = test system: natriuretic peptide levels; conditions: ARTS-HF trial, phase 2; cited from earlier work
[4] = test system: patients with HF and LVEF ≥40%; assay: […]-HF (Example 2) health status: KCCQ-TSS, NYHA class, EQ-5D-5L; assay type: in vivo, human; conditions: adjusted for baseline value, geographic region
Method: Kansas City Cardiomyopathy Questionnaire (KCCQ) is a standardized patient reported outcomes (PRO) questionnaire which assesses symptoms, physical and social limitations, and quality of life in patients with heart failure (HF). Patients are asked to recall how their HF impacted their life over a 2-week recall period.
Total HF events was analyzed using an LWYY model in a similar fashion to the primary endpoint. The percentage of participants with improvement in NYHA class from Baseline to Month 12, was analyzed with a logistic regression model including factors for treatment group and stratification levels. Patients that died or are lost to follow-up at month 12 was considered to had not improved. The absolute change from baseline including measurements up to Month 12 of the TSS of the KCCQ, was analyzed by a repeated measures mixed model including the factors treatment group, baseline, visit, baseline-by-visit interaction, and factors for the stratification levels. The comparison assumed a common treatment effect across Month 6, 9 and 12. […] The composite renal endpoint and all-cause mortality was analyzed using a stratified log-rank test for testing and a stratified Cox proportional hazards model for obtaining a point estimate with 95% confidence interval. […]

[5] = cited from earlier work
[6] = test system: preclinical cardiorenal models; conditions: preclinical cardiorenal models which develop heart failure; cited from earlier work
[7] = test system: participants with chronic kidney disease and Type-2 diabetes; conditions: cited from earlier work
[8] = FINE-HEART pooled safety population, finerenone n = 9,482, treatment-emergent
[9] = FINE-HEART pooled safety population, n = 9,482
[10] = FINE-HEART pooled, n = 9,482, investigator reported adverse events
[11] = No SGLT2i Use, finerenone n = 2,601

Compound: CCOc1ncc(C)c2c1[C@H](c1ccc(C#N)cc1OC)C(C(N)=O)=C(C)N2 [finerenone, (4S)-4-(4-cyano-2-methoxyphenyl)-5-ethoxy-2,8-dimethyl-1,4-dihydro-1,6-naphthyridine-3-carboxamide]
- Any adverse event leading to treatment discontinuation, % of patients ([1]; FINE-HEART pooled safety population, finerenone n = 9,482): (5.4%)
- Any serious adverse event, % of patients [1, 8]: (34.6%)
- Any serious adverse event, number of patients [1, 8]: 3,283
- Acute kidney injury leading to hospitalization, % of patients [1, 9]: (1.5%)
- Acute kidney injury leading to hospitalization, number of patients [1, 9]: 143
- Acute kidney injury leading to treatment discontinuation, % of patients [1, 9]: (0.2%)
- Acute kidney injury leading to treatment discontinuation, number of patients [1, 9]: 15
- Acute kidney injury, % of patients [1, 9]: (3.6%)
- Gynecomastia or breast hyperplasia, % of patients [1, 9]: (0.2%)
- Gynecomastia or breast hyperplasia, number of patients [1, 9]: 16
- Systolic blood pressure<100 mmHg, % of patients [1, 9]: (11.1%)
- Systolic blood pressure<100 mmHg, number of patients [1, 9]: 1,040
- Any potassium >6.0 mmol/L, % of patients ([1]; FINE-HEART pooled, n = 9,482, central laboratory measurements): (3.3%)
- Hyperkalemia leading to death, % of patients [1, 10]: (0.0%)
- Hyperkalemia leading to death, number of patients [1, 10]: 0
- Hyperkalemia leading to hospitalization, % of patients [1, 10]: (0.8%)
- Hyperkalemia leading to hospitalization, number of patients [1, 10]: 80
- Hyperkalemia leading to treatment discontinuation, % of patients [1, 10]: (1.3%)
- Hyperkalemia, % of patients [1, 10]: (12.8%)
- Hyperkalemia, number of patients [1, 10]: 1,216
- Any Adverse Events leading to Treatment Discontinuation [2, 11]: 90 (3.5%)
- Hyperkalemia leading to Treatment Discontinuation [2, 11]: 12 (0.5%)
- Investigator Reported Hyperkalemia [2, 11]: 246 (9.5%)
- Investigator Reported Hyperkalemia leading to Hospitalization [2, 11]: 14 (0.5%)
- Any Serious Adverse Events [2, 11]: 995 (38.3%)
- Elevated Serum Creatinine >[…] ([2]; No SGLT2i Use): 120 (4.8%)
- Elevated Serum Creatinine ≥3.0 mg/dl ([2]; No SGLT2i Use): 50 (2.0%)
- Elevated Serum Potassium >6.0 mmol/liter ([2]; No SGLT2i Use): 76 (3.0%)
- Elevated Serum Potassium >[…] ([2]; No SGLT2i Use): 358 (14.2%)
- Reduced Serum Potassium < […] ([2]; No SGLT2i Use): 118 (4.7%)
- Systolic Blood Pressure <100 mm Hg ([2]; No SGLT2i Use): 435 (17.2%)
- Any Adverse Events leading to Treatment Discontinuation ([2]; SGLT2i Use, finerenone n = 392): 6 (1.5%)
- Hyperkalemia leading to Treatment Discontinuation ([2]; SGLT2i Use, finerenone n = 392): 1 (0.3%)
- Investigator Reported Hyperkalemia ([2]; SGLT2i Use, finerenone n = 392): 43 (11.0%)
- Investigator Reported Hyperkalemia leading to Hospitalization ([2]; SGLT2i Use, finerenone n = 392): 2 (0.5%)
- Any Serious Adverse Events ([2]; SGLT2i Use, finerenone n = 392): 162 (41.3%)
- Elevated Serum Creatinine >[…] ([2]; SGLT2i Use): 21 (5.5%)
- Elevated Serum Creatinine ≥3.0 mg/dl ([2]; SGLT2i Use): 7 (1.8%)
- Elevated Serum Potassium >6.0 mmol/liter ([2]; SGLT2i Use): 10 (2.6%)
- Elevated Serum Potassium >[…] ([2]; SGLT2i Use): 55 (14.5%)
- Reduced Serum Potassium < […] ([2]; SGLT2i Use): 9 (2.4%)
- Systolic Blood Pressure <100 mm Hg ([2]; SGLT2i Use): 103 (27.0%)
- treatment effects on natriuretic peptide levels [3]: dose dependent
- Change in KCCQ-TSS from baseline to 12 months, difference in mean (95% CI) finerenone vs placebo ([4]; bilirubin Tertile 2 0.5-0.6 mg/dL): 0.69 (−0.92 to 2.30)
- Change in KCCQ-TSS from baseline to 12 months, difference in mean (95% CI) finerenone vs placebo ([4]; bilirubin Tertile 3 ≥0.7 mg/dL): 3.15 (1.52 to 4.77)
- tissue distribution between the heart and kidney ([5]; compared with steroidal mineralocorticoid receptor antagonists): more balanced
- renal elimination ([5]; in vivo): less than 1%
- systolic and diastolic function [6]: improvement
- cardiovascular events, including heart failure hospitalizations [7]: reduced
- kidney disease progression [7]: reduced
